Converted amounts (≈) assume the structure as drawn. Like-named read-outs stand apart in the source and are kept apart here.
Tests used:
Assay type in all cases: cell-based
P. aeruginosa PAO1 [1] = test: Biofilm mass formation (Crystal Violet staining), P. aeruginosa PAO1 biofilm; details: antibiotic alone 1/4 MIC added to 24 hour preformed biofilm
P. aeruginosa PAO1 [2] = test: Bacterial cell viability (Resazurin assay), P. aeruginosa PAO1 biofilm
Description: (§1) Various parameters that were evaluated in each part of the analysis include: 1) Biofilm mass formation (% inhibition—by Crystal Violet staining method); 2) Bacterial cell viability (% inhibition—by Resazurin assay); and 3) Bacterial cell growth (by Colony Counting—CFU/ml plating).
The “U” corresponds to the International Units for the enzyme in each testing well. This dose was further used in subsequent experiments. […] In an old stage (72 hour of growth), the biofilm formation was still inhibited by about 50.0%. […]
(§2) The experimental design for the second strain on the preformed biofilm included: • Strain: P. aeruginosa PAO1 • Temperature: 35±2° C. • Incubation Conditions: Static • Time Points: Preformed biofilm for 24 hours, 24 hours of further growth • Treatment: (added to well containing a suspension of P. aeruginosa PAO1 ˜10^7 CFU/ml) • Solvent 1: 50% glycerol containing 1% Triton™ X-100 and 25 mM potassium phosphate, pH 6.5 • Solvent 2: 25 mM potassium phosphate, pH 6.5 • SIGMA Trehalase: 0.092 UI • Dialyzed Trehalase: 0.092 UI • Parameters Assessed: • Biofilm mass formation (staining with crystal violet 0.06%) • Cells viability (incubation with resazurin) • Cell growth by colony counting (CFU/mL)

S. aureus ATCC 25923 [3] = test: Bacterial cell viability (Resazurin assay), S. aureus ATCC 25923
Description: as §1
(§3) There now follows greater details about tests that show the effect of Trehalase in gram-positive bacteria (MRSA and MSSA S. aureus). […] It inhibited viability of bacterial cells in the biofilm (about 84%, about 81%, and about 63% correspondingly by Resazurin assay), and reduced the bacterial cell growth in the 24 hour biofilm (about 1.5 log by CFU/ml compared to the Control).
as §2, with “first” for “second”, “early” for “preformed”, “S. aureus ATCC25923” for “P. aeruginosa PAO1”, “Points:” for “Points: Preformed biofilm for 24 hours,”, “hours” for “hours of further growth”
as §2, with “first” for “second”, “S. aureus ATCC25923” for “P. aeruginosa PAO1”, “(CFU/mL) […]” for “(CFU/mL)”

S. aureus ATCC 25923 [4] = test: MIC by CLSI guidelines, S. aureus ATCC 25923
Description: There is strong reproducibility of the data generated with S. aureus ATCC25923 (similar activity among different experiments).

S. aureus ATCC 25923 [5] = test: Biofilm mass formation (Crystal Violet staining), S. aureus ATCC 25923 biofilm; details: antibiotic alone 1/4 MIC; 24 hour grown biofilm
Description: as §1, §3
as §2, with “first” for “second”, “early” for “preformed”, “S. aureus ATCC25923” for “P. aeruginosa PAO1”, “Points:” for “Points: Preformed biofilm for 24 hours,”, “hours” for “hours of further growth”, “(CFU/mL) […]” for “(CFU/mL)”

S. aureus ATCC 25923 [6] = test: Bacterial cell growth by colony counting (CFU/mL), S. aureus ATCC 25923 biofilm and planktonic cells; details: antibiotic alone 1/4 MIC; 24 hour grown biofilm
Description: as §1, §3
as §2, with “first” for “second”, “early” for “preformed”, “S. aureus ATCC25923” for “P. aeruginosa PAO1”, “Points:” for “Points: Preformed biofilm for 24 hours,”, “hours” for “hours of further growth”, “(CFU/mL) […]” for “(CFU/mL)”

S. aureus ATCC33591 [7] = test: Biofilm mass formation, S. aureus ATCC33591 24 hour grown biofilm; details: Trehalase 0.092 UI/well, antibiotic 1/4 MIC; early (24 hour grown) biofilm
Description: as §1

S. aureus ATCC33591 [8] = test: MIC, S. aureus ATCC33591
Description: Neither Gentamicin (GENT), nor Vancomycin (VAN) in sub-MICc doses (¼/MIC) triggered biofilm induction response.

S. aureus 3-Belgium = test: MIC, S. aureus 3-Belgium
[9] = tested on: S. aureus strains (MSSA Oxford, MSSA ATCC 35556, MRSA ATCC 25923); test: MIC in broth (CLSI) in the presence and absence of Trehalase, selected S. aureus strains; details: Trehalase 0.092 UI, 24 hours
Description: There was testing of Trehalase on Clinical Isolates (S. aureus strains: Oxford, ATCC35556, and ATCC 25923 as the reference strain) at a time-point: 24 hours of biofilm growth.
The MIC determination with selected S. aureus strains proceeded as a first step. The materials and methods included:
S. aureus strains: Oxford; ATCC35556 and ATCC25923 (as reference strain)
In vitro assay: MIC in broth (according to CLSI guidelines)
Antibiotic concentration: two-fold series dilution from 16 to 0.0078 μg/mL
Incubation: T 37° C.; static condition

[10] = GENT/VAN experiment, Trehalase 0.092 UI/well, antibiotic 1/4 MIC, 24 hour grown biofilm

Molecule | increase of biofilm mass formation (BIR) compared to Control level (P. aeruginosa PAO1 [1]) | increased biofilm mass (biofilm induction response, BIR) compared to Negative Control (S. aureus ATCC 25923 [5]) | inhibition of biofilm cell viability (Resazurin assay) (S. aureus ATCC 25923 [3]; [10]) | effect on cell growth (S. aureus ATCC 25923 [6]) | inhibition / reduction of biofilm mass formation compared to Control (S. aureus ATCC33591 [7]) | MIC (S. aureus ATCC 25923 [4]) | also measured
CC(C)(O/N=C(\C(=O)N[C@@H]1C(=O)N2C(C(=O)[O-])=C(C[n+]3ccccc3)CS[C@H]12)c1csc(N)n1)C(=O)O [Ceftazidime] | about 1.6 |  |  |  |  |  | inhibition of cell viability (Resazurin assay) (P. aeruginosa PAO1 [2]; Pseudomonas aeruginosa, 48 h): 25-50%; inhibition of biofilm cell viability (Resazurin assay) (S. aureus ATCC 25923 [3]; Staphylococcus aureus, 24 h): about 13%; MIC (S. aureus ATCC 25923 [4]; Staphylococcus aureus, ATCC25923, read-out: MIC): 8 µg/mL (≈ 14.6 µM)
NC[C@H]1O[C@H](O[C@H]2[C@H](O)[C@@H](O[C@H]3O[C@H](CO)[C@@H](O)[C@H](N)[C@H]3O)[C@H](N)C[C@@H]2N)[C@H](N)C[C@@H]1O [Tobramycin] | about 1.4 |  |  |  |  |  | inhibition of cell viability (Resazurin assay) (P. aeruginosa PAO1 [2]; added at beginning, antibiotic 1/4 MIC, 24 hour grown biofilm): about 25%; inhibition of cell viability (Resazurin assay) (P. aeruginosa PAO1 [2]; added at beginning, sub-MIC antibiotic, 48 hour grown biofilm): about 25%
CN[C@H](CC(C)C)C(=O)N[C@H]1C(=O)N[C@@H](CC(N)=O)C(=O)N[C@H]2C(=O)N[C@H]3C(=O)N[C@H](C(=O)N[C@H](C(=O)O)c4cc(O)cc(O)c4-c4cc3ccc4O)[C@H](O)c3ccc(c(Cl)c3)Oc3cc2cc(c3O[C@@H]2O[C@H](CO)[C@@H](O)[C@H](O)[C@H]2O[C@H]2C[C@](C)(N)[C@H](O)[C@H](C)O2)Oc2ccc(cc2Cl)[C@H]1O [Vancomycin] |  | 1.8 fold | no effect | no effect | about 20% | 2.0 µg/mL (≈ 1.38 µM) | MIC (S. aureus ATCC33591 [8]; Staphylococcus aureus, ATCC33591): 2 µg/mL (≈ 1.38 µM); MIC (S. aureus 3-Belgium; Staphylococcus aureus, 3BELGIUM): 2 µg/mL (≈ 1.38 µM); effect of addition of Trehalase on MIC [9]: No significant effect
Gentamicin |  | two-fold | no effect | no effect | about 10% | 2 µg/mL | MIC (S. aureus ATCC33591 [8]): 2.0 µg/mL; MIC (S. aureus 3-Belgium): 32.0 µg/mL; MIC value reduction on addition of Trehalase ([9]; clinical isolates): up to 16 fold; MIC value reduction on addition of Trehalase ([9]; reference isolates): ≤ 33 fold

Source: US10758596B2, “Compositions and methods to prevent and treat biofilms” (ZIOLASE, LLC, priority 2011, dated 2020)
